Laboratory results reported in US9889115B2, “Fitness assay and associated methods” (priority 1998, dated 2018).
Where two headings read alike, the source gives them in different places.

How the values were obtained:
Format in all cases: cell-based
[1] = tested on: multidrug-resistant HIV-1 clinical isolate, patient 10; assay: microbe, parasite or virus in culture; settings: Patient Isolate 10
Method: (§1) The mutant multidrug-resistant HIV-1 strains corresponding to each patient, numbered 9-35, were genetically analyzed in terms of the nucleic acid sequences of the protease (PR) and a portion of the reverse transcriptase (RT) genes from which mutations in these enzymes were determined. The mutations in the protease and reverse transcriptase of the multidrug-resistant viruses isolated from each patient are shown below in Table 9b.

[2] = tested on: multidrug-resistant HIV-1 clinical isolate, patient 11; assay: microbe, parasite or virus in culture; settings: Patient Isolate 11
Method: as §1

[3] = tested on: multidrug-resistant HIV-1 clinical isolate, patient 12; assay: microbe, parasite or virus in culture; settings: Patient Isolate 12
Method: as §1

[4] = tested on: multidrug-resistant HIV-1 clinical isolate, patient 13; assay: microbe, parasite or virus in culture; settings: Patient Isolate 13
Method: as §1

[5] = tested on: multidrug-resistant HIV-1 clinical isolate, patient 14; assay: microbe, parasite or virus in culture; settings: Patient Isolate 14
Method: as §1

[6] = tested on: multidrug-resistant HIV-1 clinical isolate, patient 15; assay: microbe, parasite or virus in culture; settings: Patient Isolate 15
Method: as §1

[7] = tested on: multidrug-resistant HIV-1 clinical isolate, patient 16; assay: microbe, parasite or virus in culture; settings: Patient Isolate 16
Method: as §1

[8] = tested on: multidrug-resistant HIV-1 clinical isolate, patient 17; assay: microbe, parasite or virus in culture; settings: Patient Isolate 17
Method: as §1

[9] = tested on: multidrug-resistant HIV-1 clinical isolate, patient 18; assay: microbe, parasite or virus in culture; settings: Patient Isolate 18
Method: as §1

[10] = tested on: multidrug-resistant HIV-1 clinical isolate, patient 19; assay: microbe, parasite or virus in culture; settings: Patient Isolate 19
Method: as §1

[11] = tested on: multidrug-resistant HIV-1 clinical isolate, patient 20; assay: microbe, parasite or virus in culture; settings: Patient Isolate 20
Method: as §1

[12] = tested on: multidrug-resistant HIV-1 clinical isolate, patient 21; assay: microbe, parasite or virus in culture; settings: Patient Isolate 21
Method: as §1

[13] = tested on: multidrug-resistant HIV-1 clinical isolate, patient 23; assay: microbe, parasite or virus in culture; settings: Patient Isolate 23
Method: as §1

[14] = tested on: multidrug-resistant HIV-1 clinical isolate, patient 27; assay: microbe, parasite or virus in culture; settings: Patient Isolate 27
Method: as §1

[15] = tested on: multidrug-resistant HIV-1 clinical isolate, patient 28; assay: microbe, parasite or virus in culture; settings: Patient Isolate 28
Method: as §1

[16] = tested on: multidrug-resistant HIV-1 clinical isolate, patient 29; assay: microbe, parasite or virus in culture; settings: Patient Isolate 29
Method: as §1

[17] = tested on: multidrug-resistant HIV-1 clinical isolate, patient 30; assay: microbe, parasite or virus in culture; settings: Patient Isolate 30
Method: as §1

[18] = tested on: multidrug-resistant HIV-1 clinical isolate, patient 31; assay: microbe, parasite or virus in culture; settings: Patient Isolate 31
Method: as §1

[19] = tested on: multidrug-resistant HIV-1 clinical isolate, patient 32; assay: microbe, parasite or virus in culture; settings: Patient Isolate 32
Method: as §1

[20] = tested on: multidrug-resistant HIV-1 clinical isolate, patient 33; assay: microbe, parasite or virus in culture; settings: Patient Isolate 33
Method: as §1

[21] = tested on: multidrug-resistant HIV-1 clinical isolate, patient 35; assay: microbe, parasite or virus in culture; settings: Patient Isolate 35
Method: as §1

[22] = tested on: multidrug-resistant HIV-1 clinical isolate, patient 9; assay: microbe, parasite or virus in culture; settings: Patient Isolate 9
Method: as §1

[23] = tested on: multidrug-resistant HIV-1 clinical isolate, patient 22; assay: IC50 against multidrug-resistant clinical isolates (Table 9a)
Method: as §1

[24] = tested on: multidrug-resistant HIV-1 clinical isolate, patient 34; assay: as above
Method: as §1

[25] = tested on: wild-type HIV-1 (WT); assay: IC50 against wild-type HIV-1 (Table 9a); settings: (WT)
[26] = tested on: HIV-1LAI; assay: PHA-PBMC assay, p24 Gag protein production; settings: Human immunodeficiency virus 1; HIV-1LAI, SI; PHA-PBMC, p24 (Table 3)
[27] = tested on: HIV-1BAL; assay: PHA-PBMC assay, p24 Gag protein production; settings: Human immunodeficiency virus 1; HIV-1BAL, NSI; PHA-PBMC, p24 (Table 3)
[28] = tested on: HIV-1ERS104pre; assay: PHA-PBMC assay, p24 Gag protein production; settings: Human immunodeficiency virus 1; HIV-1ERS104pre, SI; PHA-PBMC, p24
Method: (§2) The patient profiles are shown below in Table 2.
(§3) To determine protease inhibitory activity against multidrug resistant HIV, the IC50's were measured against a panel of clinically isolated mutant HIV isolates.
(§4) All drug sensitivities were performed in triplicate. In order to determine whether the HIV isolates were syncitium inducing (SI) or non-syncitium inducing (NSI), an aliquot of viral stock supernatant, containing 100 TCID50, was cultured with 1×10^5 MT-2 cells in a 12-well plate. Cultures were maintained for four weeks and were examined for syncytium formation twice a week.

[29] = tested on: multidrug-resistant HIV-1 clinical isolate, patient 1; assay: PHA-PBMC assay, p24 Gag protein production; settings: Human immunodeficiency virus 1; Patient/Isolate code 1; PHA-PBMC, p24
Method: as §2, §3, §4

[30] = tested on: multidrug-resistant HIV-1 clinical isolate, patient 2; assay: PHA-PBMC assay, p24 Gag protein production; settings: Human immunodeficiency virus 1; Patient/Isolate code 2; PHA-PBMC, p24
Method: as §2, §3, §4

[31] = tested on: multidrug-resistant HIV-1 clinical isolate, patient 3; assay: PHA-PBMC assay, p24 Gag protein production; settings: Human immunodeficiency virus 1; Patient/Isolate code 3; PHA-PBMC, p24
Method: as §2, §3, §4

[32] = tested on: multidrug-resistant HIV-1 clinical isolate, patient 4; assay: PHA-PBMC assay, p24 Gag protein production; settings: Human immunodeficiency virus 1; Patient/Isolate code 4; PHA-PBMC, p24
Method: as §2, §3, §4

[33] = tested on: multidrug-resistant HIV-1 clinical isolate, patient 5; assay: PHA-PBMC assay, p24 Gag protein production; settings: Human immunodeficiency virus 1; Patient/Isolate code 5; PHA-PBMC, p24
Method: as §2, §3, §4

[34] = tested on: multidrug-resistant HIV-1 clinical isolate, patient 6; assay: PHA-PBMC assay, p24 Gag protein production; settings: Human immunodeficiency virus 1; Patient/Isolate code 6; PHA-PBMC, p24
Method: as §2, §3, §4

[35] = tested on: multidrug-resistant HIV-1 clinical isolate, patient 7; assay: PHA-PBMC assay, p24 Gag protein production; settings: Human immunodeficiency virus 1; Patient/Isolate code 7; PHA-PBMC, p24
Method: as §2, §3, §4

[36] = tested on: multidrug-resistant HIV-1 clinical isolate, patient 8; assay: PHA-PBMC assay, p24 Gag protein production; settings: Human immunodeficiency virus 1; Patient/Isolate code 8; PHA-PBMC, p24
Method: as §2, §3, §4

[37] = Patient Isolate 22, read-out: IC50
[38] = Patient Isolate 34, read-out: IC50

## Cc1cn([C@H]2C=C[C@@H](CO)O2)c(=O)[nH]c1=O [Compound D4T]
[1]
  IC50: 1.29 µM
[2]
  IC50: 3.1 µM
[3]
  IC50: 1.23 µM
[4]
  IC50: 0.78 µM
[5]
  IC50: 1.1 µM
[6]
  IC50: 1.1 µM
[7]
  IC50: 1.81 µM
[8]
  IC50: 4.28 µM
[9]
  IC50: 2.08 µM
[10]
  IC50: 35.6 µM
[11]
  IC50: 22.5 µM
[12]
  IC50: 3.28 µM
[13]
  IC50: 1 µM
[14]
  IC50: 4 µM
[15]
  IC50: 5.44 µM
[16]
  IC50: 5.29 µM
[17]
  IC50: 2.52 µM
[18]
  IC50: 3.11 µM
[19]
  IC50: 2.41 µM
[20]
  IC50: 2.73 µM
[21]
  IC50: 18.1 µM
[22]
  IC50: 0.91 µM
[23]; [37]
  IC50: 4.68 µM
[24]; [38]
  IC50: 7.71 µM
[25]
  IC50: 1.06 µM

## CC(C)(C)NC(=O)[C@@H]1CN(Cc2cccnc2)CCN1C[C@@H](O)C[C@@H](Cc1ccccc1)C(=O)N[C@H]1c2ccccc2C[C@H]1O [IDV, Indinavir]
[26]
  IC50: 0.019 µM
[27]
  IC50: 0.0056 µM
[28]
  IC50: 0.013 µM
[29]
  IC50: > 1 µM
[30]
  IC50: 0.24 µM
[31]
  IC50: 0.46 µM
[32]
  IC50: 0.24 µM
[33]
  IC50: 0.8 µM
[34]
  IC50: 0.37 µM
[35]
  IC50: > 1 µM
[36]
  IC50: > 1 µM
[1]; Human immunodeficiency virus 1
  IC50: > 1.25 µM
[2]; Human immunodeficiency virus 1
  IC50: 0.012 µM
[3]; Human immunodeficiency virus 1
  IC50: > 1.25 µM
[4]; Human immunodeficiency virus 1
  IC50: > 1.25 µM
[5]; Human immunodeficiency virus 1
  IC50: 0.089 µM
[6]; Human immunodeficiency virus 1
  IC50: 0.265 µM
[7]; Human immunodeficiency virus 1
  IC50: 0.384 µM
[8]; Human immunodeficiency virus 1
  IC50: 0.502 µM
[9]; Human immunodeficiency virus 1
  IC50: 0.369 µM
[10]; Human immunodeficiency virus 1
  IC50: 0.784 µM
[11]; Human immunodeficiency virus 1
  IC50: 0.591 µM
[13]; Human immunodeficiency virus 1
  IC50: 0.461 µM
[14]; Human immunodeficiency virus 1
  IC50: > 1.25 µM
[15]; Human immunodeficiency virus 1
  IC50: 1.04 µM
[16]; Human immunodeficiency virus 1
  IC50: 0.569 µM
[17]; Human immunodeficiency virus 1
  IC50: 0.27 µM
[18]; Human immunodeficiency virus 1
  IC50: 0.251 µM
[19]; Human immunodeficiency virus 1
  IC50: 0.223 µM
[20]; Human immunodeficiency virus 1
  IC50: 0.133 µM
[21]; Human immunodeficiency virus 1
  IC50: 0.509 µM
[22]; Human immunodeficiency virus 1
  IC50: 1.09 µM
[23]; Human immunodeficiency virus 1
  IC50: 0.173 µM
[24]; Human immunodeficiency virus 1
  IC50: 0.595 µM
[25]; Human immunodeficiency virus 1
  IC50: 0.02 µM

## O=c1[nH]cnc2c1ncn2[C@H]1CC[C@@H](CO)O1 [DDI, 2′3′-dideoxyinosine]
[1]
  IC50: 1.7 µM
[2]
  IC50: 2.4 µM
[3]
  IC50: 0.9 µM
[4]
  IC50: 0.5 µM
[5]
  IC50: 2.4 µM
[6]
  IC50: 2.2 µM
[7]
  IC50: 3.5 µM
[9]
  IC50: 2.2 µM
[10]
  IC50: 36.6 µM
[11]
  IC50: 7.1 µM
[12]
  IC50: 1 µM
[13]
  IC50: 1.8 µM
[14]
  IC50: 2.6 µM
[15]
  IC50: 2.8 µM
[16]
  IC50: 3.8 µM
[17]
  IC50: 2.8 µM
[18]
  IC50: 2.6 µM
[19]
  IC50: 8.4 µM
[20]
  IC50: 2 µM
[21]
  IC50: 17 µM
[22]
  IC50: 0.7 µM
[23]; [37]
  IC50: 3.7 µM
[24]; [38]
  IC50: 9.1 µM
[25]
  IC50: 0.895 µM

## Nc1ccn([C@@H]2CS[C@H](CO)O2)c(=O)n1 [Compound 3TC]
[25]
  IC50: 0.264 µM
